# Measured values as given in ChEMBL document CHEMBL5729639, “FGFR4 inhibitor and preparation method and use thereof” (2023).
# pIC50: −log10 of the molar value.
# Molecular target: Fibroblast growth factor receptor 1 (Homo sapiens, UniProt P11362)
# Experiment: Enzymologic Experiment of FGFR1: In this experiment, the inhibitory effect of the compounds on FGFR1 kinase activity was tested by a fluorescence resonance energy transfer (TR-FRET) method, and the half maximal inhibitory concentration (IC50) of the compounds on the FGFR1 kinase activity was determined. 1) 1˜5 μL of FGFR1 enzymatic solution was added to a 384-well plate, and the final concentration of the enzyme was 0.1˜5 nM. 2) 1˜5 μL of diluted solution in gradient of the compound was added.3) 1˜5 μL of a substrate mixture containing substrate polypeptide with a final concentration of 5˜50 nM and ATP with a final concentration of 10˜200 μM was added. 4) The mixture was incubated for 0.5-3 hours at room temperature. 5) 10 μL of EDTA and a test solution comprising labeled antibody were added, and the plate was incubated for 1 hour at room temperature. 6) The fluorescence signal values of each plate were determined by a microplate reader at 665 nm. 7) The inhibition rates were calculated according to the fluorescence signal values.
# Chain of Fibroblast growth factor receptor 1 (P11362 whole entry): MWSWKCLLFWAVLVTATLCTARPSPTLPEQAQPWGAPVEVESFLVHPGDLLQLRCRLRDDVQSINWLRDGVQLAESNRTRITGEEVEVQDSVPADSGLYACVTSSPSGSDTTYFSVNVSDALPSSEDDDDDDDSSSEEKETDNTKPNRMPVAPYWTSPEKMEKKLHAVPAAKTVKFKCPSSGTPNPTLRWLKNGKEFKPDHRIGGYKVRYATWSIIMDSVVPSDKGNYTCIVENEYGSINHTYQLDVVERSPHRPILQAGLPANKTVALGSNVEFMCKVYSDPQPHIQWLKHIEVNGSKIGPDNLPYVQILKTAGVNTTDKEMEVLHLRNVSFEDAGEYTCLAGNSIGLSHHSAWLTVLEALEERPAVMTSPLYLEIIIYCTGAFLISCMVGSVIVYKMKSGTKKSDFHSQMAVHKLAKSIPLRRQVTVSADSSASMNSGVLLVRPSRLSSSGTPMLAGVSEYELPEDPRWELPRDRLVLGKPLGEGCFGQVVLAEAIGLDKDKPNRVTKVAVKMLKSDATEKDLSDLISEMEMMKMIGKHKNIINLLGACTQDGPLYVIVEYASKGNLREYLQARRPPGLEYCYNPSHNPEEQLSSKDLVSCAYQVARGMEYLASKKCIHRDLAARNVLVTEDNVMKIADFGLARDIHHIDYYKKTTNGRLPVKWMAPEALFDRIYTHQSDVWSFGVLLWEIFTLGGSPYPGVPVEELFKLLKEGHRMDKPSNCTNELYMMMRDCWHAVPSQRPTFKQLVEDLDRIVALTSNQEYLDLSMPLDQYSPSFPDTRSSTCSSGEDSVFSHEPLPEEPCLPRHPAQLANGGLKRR
row,Structure (SMILES),pIC50
1,COCCNc1cc(NC(=O)N2CCCc3cc(CN(C=O)C[C@@H]4CCCO4)c(C=O)nc32)ncc1C#N,< 5.00
2,COCCNc1cc(NC(=O)N2CCCc3cc(CN(C=O)[C@H]4CCOC4)c(C=O)nc32)ncc1C#N,< 5.00
3,COC[C@@H](C)Nc1cc(NC(=O)N2CCCc3cc(CN4CC[C@@H](OC)C4=O)c(C=O)nc32)ncc1C#N,< 5.00
4,COCCNc1cc(NC(=O)N2CCCc3cc(CN(C=O)C[C@H]4CCCO4)c(C=O)nc32)ncc1C#N,< 5.00
